According to patent US20260191968A1, “PROTAC DEGRADERS OF MLLT1 AND/OR MLLT3” (DARK BLUE THERAPEUTICS LTD, priority 2024, published 2026):

Key:
MLLT1 = target: T1, MLLT1 (Homo sapiens, UniProt Q03111); test: MLLT1 degradation assay in MV4-11 cells (JESS chemiluminescent detection), three concentrations, 24 h; assay type: cell-based; conditions: with respect to DMSO control
T1 construct: host or cells: MV4-11
T1 sequence (Q03111 1-559): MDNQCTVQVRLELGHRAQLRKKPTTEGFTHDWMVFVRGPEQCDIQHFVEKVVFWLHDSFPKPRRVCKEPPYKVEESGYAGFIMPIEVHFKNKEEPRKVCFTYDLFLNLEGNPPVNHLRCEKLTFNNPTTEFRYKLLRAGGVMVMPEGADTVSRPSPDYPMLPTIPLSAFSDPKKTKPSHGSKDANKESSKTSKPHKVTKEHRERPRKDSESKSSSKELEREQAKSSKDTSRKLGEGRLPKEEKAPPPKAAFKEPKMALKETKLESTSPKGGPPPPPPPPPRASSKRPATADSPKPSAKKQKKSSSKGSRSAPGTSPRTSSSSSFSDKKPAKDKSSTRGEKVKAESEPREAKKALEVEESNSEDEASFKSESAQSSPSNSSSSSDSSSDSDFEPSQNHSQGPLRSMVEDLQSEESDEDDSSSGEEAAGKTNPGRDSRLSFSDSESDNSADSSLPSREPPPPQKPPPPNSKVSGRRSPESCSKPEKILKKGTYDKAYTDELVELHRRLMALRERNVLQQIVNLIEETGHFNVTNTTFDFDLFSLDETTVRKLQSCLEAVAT
Method in brief: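 Read-out is % MLLT1 degradation versus DMSO, from band peak areas on a JESS chemiluminescent system. Cells (MV4-11) were exposed for 24 h at 37° C to three compound levels, 10, 100 and 1000 nM, in 0.1% DMSO.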

MV4-11 cells = test: MV4-11 cellular proliferative assay, Assay Format A (CellTiter-Glo, 120 hours); assay type: cell-based; conditions: Homo sapiens
Procedure: An MV4-11 proliferation assay was used to test the ability of compounds to reduce cell viability. MV4-11 cells (ATCC #CRL9591) were grown in IMDM medium (11510596, Gibco) supplemented with 10% fetal bovine serum (F7524, Gibco) and 1% Penicillin/Streptomycin (15140-122, Gibco) at 37° C. with 5% CO2. Cells were seeded in 384-well Elplasia plates (4447, Corning) at a density of 50 cells/well and treated with vehicle (DMSO) or compounds (10 serial semi-log dilutions, 30 μM as top concentration).
After 120 hours of treatment, cells were incubated for 10 min at RT with the CellTiter-Glo (CTG) reagent (G7571, Promega). Measurement of the luminescence signal was performed on a microplate reader (Ensight, PerkinElmer). CTG reagent measures the amount of ATP, which is directly proportional to the number of cells, to determine the number of viable cells in culture.
The data were analysed as follows:
where x is the measured raw signal value of a well, (cr) is the median of the measured signal values for the Central Reference (DMSO) wells on a plate, (sr) is the median of the measured signal values for the Scale Reference (reference compound) wells on a plate.
where the experimental set-up assumes the Hill parameters in certain ranges: S0~Central Reference (CR) from normalization (=Bottom), Sinf~Scale Reference (SR) from normalization (=Top), nHill~1, AC50~within the measured concentration range.

SMILES | MLLT1% Degradation @ 0.1 μM (MLLT1) | MLLT1% Degradation @ 1 μM (MLLT1) | IC50 (MV4-11 cells) [nM] | MLLT1% Degradation @ 0.01 μM (MLLT1)
CN1CCC[C@@H]1c1cc2cnc(NC(=O)CCCCCCNc3cccc4c3C(=O)N(C3CCC(=O)NC3=O)C4=O)cc2[nH]1 (stereo partly drawn) [Example 29, 7-{[2-(2,6-dioxopiperidin-3-yl)-1,3-dioxoisoindol-4-yl]amino}-N-{2-[(2R)-1-methylpyrrolidin-2-yl]-1H-pyrrolo[3,2-c]pyridin-6-yl}heptanamide] | C (Category C: 25% ≤ C < 50% degradation) | A (Category A: A ≥ 75% degradation) | ≤ 100 | D (Category D: D < 25% degradation)
CN1CCC[C@@H]1c1cc2cnc(NC(=O)c3cccc(OCC#Cc4cccc5c4CN(C4CCC(=O)NC4=O)C5=O)c3)cc2[nH]1 (stereo partly drawn) [Example 58, 3-((3-(2-(2,6-dioxopiperidin-3-yl)-1-oxoisoindolin-4-yl)prop-2-yn-1-yl)oxy)-N-(2-((R)-1-methylpyrrolidin-2-yl)-1H-pyrrolo[3,2-c]pyridin-6-yl)benzamide] | A (Category A: A ≥ 75% degradation) | C (Category C: 25% ≤ C < 50% degradation) | ≤ 100 | B (Category B: 50% ≤ B < 75% degradation)
CN1CCC[C@@H]1c1cc2cnc(NC(=O)c3ccc(-c4cnn(CCCC#Cc5cccc6c5CN(C5CCC(=O)NC5=O)C6=O)c4)cc3)cc2[nH]1 (stereo partly drawn) [Example 21, 4-(1-(5-(2-(2,6-dioxopiperidin-3-yl)-1-oxoisoindolin-4-yl)pent-4-yn-1-yl)-1H-pyrazol-4-yl)-N-(2-((R)-1-methylpyrrolidin-2-yl)-1H-pyrrolo[3,2-c]pyridin-6-yl)benzamide] | A (Category A: A ≥ 75% degradation) | B (Category B: 50% ≤ B < 75% degradation) | ≤ 100 | A (Category A: A ≥ 75% degradation)
CN1CCC[C@H]1c1cc2cnc(NC(=O)c3ccc(CCCNc4cccc5c4C(=O)N(C4CCC(=O)NC4=O)C5=O)cc3)cc2[nH]1 (stereo partly drawn) [Example 37, 4-(3-{[2-(2,6-dioxopiperidin-3-yl)-1,3-dioxoisoindol-4-yl]amino}propyl)-N-{2-[(2S)-1-methylpyrrolidin-2-yl]-1H-pyrrolo[3,2-c]pyridin-6-yl}benzamide] | A (Category A: A ≥ 75% degradation) | A (Category A: A ≥ 75% degradation) | ≤ 100 | B (Category B: 50% ≤ B < 75% degradation)
CN1CCC[C@@H]1c1cc2cnc(NC(=O)c3ccc(-c4cnn(CCCC5CCN(c6cccc7c6C(=O)N(C6CCC(=O)NC6=O)C7=O)CC5)c4)cc3)cc2[nH]1 (stereo partly drawn) [Example 34, 4-[1-(3-{1-[2-(2,6-dioxopiperidin-3-yl)-1,3-dioxoisoindol-4-yl]piperidin-4-yl}propyl)pyrazol-4-yl]-N-{2-[(2R)-1-methylpyrrolidin-2-yl]-1H-pyrrolo[3,2-c]pyridin-6-yl}benzamide] | A (Category A: A ≥ 75% degradation) | A (Category A: A ≥ 75% degradation) | ≤ 100 | –
CN1CCC[C@@H]1c1cc2cnc(NC(=O)c3ccc(-c4ccn(CCCC#Cc5cccc6c5CN(C5CCC(=O)NC5=O)C6=O)n4)cc3)cc2[nH]1 (mixture of isomers) [Example 20, 4-(1-(5-(2-(2,6-dioxopiperidin-3-yl)-1-oxoisoindolin-4-yl)pent-4-yn-1-yl)-1H-pyrazol-3-yl)-N-(2-((R)-1-methylpyrrolidin-2-yl)-1H-pyrrolo[3,2-c]pyridin-6-yl)benzamide] | B (Category B: 50% ≤ B < 75% degradation) | C (Category C: 25% ≤ C < 50% degradation) | ≤ 100 | B (Category B: 50% ≤ B < 75% degradation)
CN1CCC[C@@H]1c1cc2cnc(NC(=O)c3ccc(CCC4CCN(c5cccc6c5C(=O)N(C5CCC(=O)NC5=O)C6=O)CC4)cc3)cc2[nH]1 (stereo partly drawn) [Example 4, 4-(2-(1-(2-(2,6-dioxopiperidin-3-yl)-1,3-dioxoisoindolin-4-yl)piperidin-4-yl)ethyl)-N-(2-((R)-1-methylpyrrolidin-2-yl)-1H-pyrrolo[3,2-c]pyridin-6-yl)benzamide] | A (Category A: A ≥ 75% degradation) | A (Category A: A ≥ 75% degradation) | ≤ 100 | B (Category B: 50% ≤ B < 75% degradation)
CN1CCC[C@@H]1c1cc2cnc(NC(=O)CCCC3CCN(c4cccc5c4C(=O)N(C4CCC(=O)NC4=O)C5=O)CC3)cc2[nH]1 (stereo partly drawn) [Example 41, 4-(1-(2-(2,6-dioxopiperidin-3-yl)-1,3-dioxoisoindolin-4-yl)piperidin-4-yl)-N-(2-((R)-1-methylpyrrolidin-2-yl)-1H-pyrrolo[3,2-c]pyridin-6-yl)butanamide] | B (Category B: 50% ≤ B < 75% degradation) | A (Category A: A ≥ 75% degradation) | ≤ 100 | B (Category B: 50% ≤ B < 75% degradation)

Second part, led by results:

MLLT1% Degradation @ 0.1 μM (MLLT1) | MLLT1% Degradation @ 1 μM (MLLT1) | IC50 (MV4-11 cells) [nM] | SMILES | MLLT1% Degradation @ 0.01 μM (MLLT1)
A (Category A: A ≥ 75% degradation) | A (Category A: A ≥ 75% degradation) | ≤ 100 | CN1CCC[C@@H]1c1cc2cnc(NC(=O)c3ccc(OCCCC#Cc4cccc5c4CN(C4CCC(=O)NC4=O)C5=O)cc3)cc2[nH]1 (stereo partly drawn) [Example 56, 4-((5-(2-(2,6-dioxopiperidin-3-yl)-1-oxoisoindolin-4-yl)pent-4-yn-1-yl)oxy)-N-(2-((R)-1-methylpyrrolidin-2-yl)-1H-pyrrolo[3,2-c]pyridin-6-yl)benzamide] | A (Category A: A ≥ 75% degradation)
A (Category A: A ≥ 75% degradation) | A (Category A: A ≥ 75% degradation) | ≤ 100 | CN1CCC[C@@H]1c1[nH]c2cc(NC(=O)CCCCCCNc3cccc4c3C(=O)N(C3CCC(=O)NC3=O)C4=O)ncc2c1Cl (stereo partly drawn) [Example 33, N-{3-chloro-2-[(2R)-1-methylpyrrolidin-2-yl]-1H-pyrrolo[3,2-c]pyridin-6-yl}-7-{[2-(2,6-dioxopiperidin-3-yl)-1,3-dioxoisoindol-4-yl]amino}heptanamide] | B (Category B: 50% ≤ B < 75% degradation)
A (Category A: A ≥ 75% degradation) | A (Category A: A ≥ 75% degradation) | ≤ 100 | CN1CCC[C@@H]1c1cc2cnc(NC(=O)c3ccc(CCCNc4cccc5c4C(=O)N(C4CCC(=O)NC4=O)C5=O)cc3)cc2[nH]1 (stereo partly drawn) [Example 36, 4-(3-{[2-(2,6-dioxopiperidin-3-yl)-1,3-dioxoisoindol-4-yl]amino}propyl)-N-{2-[(2R)-1-methylpyrrolidin-2-yl]-1H-pyrrolo[3,2-c]pyridin-6-yl}benzamide] | A (Category A: A ≥ 75% degradation)
A (Category A: A ≥ 75% degradation) | A (Category A: A ≥ 75% degradation) | ≤ 100 | C[C@H](C#Cc1cccc2c1CN(C1CCC(=O)NC1=O)C2=O)Oc1ccc(C(=O)Nc2cc3[nH]c([C@H]4CCCN4C)cc3cn2)cc1 (stereo partly drawn) [Example 25, 4-(((2R)-4-(2-(2,6-dioxopiperidin-3-yl)-1-oxoisoindolin-4-yl)but-3-yn-2-yl)oxy)-N-(2-((R)-1-methylpyrrolidin-2-yl)-1H-pyrrolo[3,2-c]pyridin-6-yl)benzamide] | A (Category A: A ≥ 75% degradation)
